Measured values from patent US20230192691A1, “HETEROCYCLIC COMPOUNDS AS BTK INHIBITORS” (Beijing InnoCare Pharma Tech Co., Ltd., priority 2020, published 2023).

Tests used:
[1] = molecular target: T1, human-derived recombinant BTK protein (Homo sapiens, UniProt Q06187); assay: BTK activity inhibition assay (HTRF in vitro kinase assay); type: biochemical; conditions: 40 μM ATP, 0.2 ng/μL BTK
T1 construct: purchased Carna Biosciences 08-180
Method: In vitro kinase assay was used to evaluate the effects of compounds of the present invention on BTK activity (Table 1).
(§1) By using the homogeneous time-resolved fluorescence (HTRF) kinase detection kit (Cisbio, catalog number 62TK0PEC), the enzymatic activity of BTK is determined by detecting the phosphorylation level of the substrate in the kinase reaction. The reaction buffer contains the enzyme reaction buffer (1×) from the kit, 5 mM MgCl2, 1 mM DTT, 10 nM SEB and 0.01% Tween-20; the kinase reaction solution contains human-derived recombinant BTK protein (Carna Biosciences, Catalog No. 08-180) diluted to 0.2 ng/μL with the reaction buffer; the substrate reaction solution contains biotin-labeled tyrosine kinase substrate diluted to 0.5 μM with the reaction buffer and 40 μM ATP; the detection buffer contains Eu^3+-labeled cage antibody diluted to 0.05 ng/μL and streptavidin-labeled XL665 antibody diluted to 31.25 nM with the reaction buffer; the test compound is dissolved and diluted to 100 μM with DMSO, followed by a 4-fold serial dilution with DMSO to the lowest concentration of 6.1 nM and finally 40-time dilution with the reaction buffer for each concentration point. If the IC50 value of the compound is very low, the initial concentration of the compound is reduced.
(§2) Add 4 μL test compound solution and 2 μL kinase reaction solution to a 384-well detection plate (Corning, catalog number 3674), mix well and incubate at room temperature for 15 minutes; add 4 μL substrate reaction solution and incubate for 50 minutes; add 10 μL detection buffer, mix well and stand for 60 minutes; detect signal at 620 nm and 665 nm using an Envision plate reader (Perkin Elmer). The signal value (absorbance at 665 nm/absorbance at 620 nm) is positively correlated with the degree of phosphorylation of the substrate, thereby detecting the kinase activity of BTK. In this experiment, the group without BTK is the negative control (100% inhibition) and the group with BTK but no compound is the positive control (0% inhibition). The inhibition curve is plotted and the corresponding IC50 value of the test compound is calculated using XLfit software (ID Business Solutions Ltd., UK).

[2] = molecular target: T2, human recombinant BTK C481S protein (Homo sapiens, UniProt Q06187, C481S); assay: BTK C481S activity inhibition assay (HTRF in vitro kinase assay); type: biochemical; conditions: 35 μM ATP, 1.5 ng/μL BTK C481S
T2 construct: made in house
T2 sequence (Q06187 whole entry C481S): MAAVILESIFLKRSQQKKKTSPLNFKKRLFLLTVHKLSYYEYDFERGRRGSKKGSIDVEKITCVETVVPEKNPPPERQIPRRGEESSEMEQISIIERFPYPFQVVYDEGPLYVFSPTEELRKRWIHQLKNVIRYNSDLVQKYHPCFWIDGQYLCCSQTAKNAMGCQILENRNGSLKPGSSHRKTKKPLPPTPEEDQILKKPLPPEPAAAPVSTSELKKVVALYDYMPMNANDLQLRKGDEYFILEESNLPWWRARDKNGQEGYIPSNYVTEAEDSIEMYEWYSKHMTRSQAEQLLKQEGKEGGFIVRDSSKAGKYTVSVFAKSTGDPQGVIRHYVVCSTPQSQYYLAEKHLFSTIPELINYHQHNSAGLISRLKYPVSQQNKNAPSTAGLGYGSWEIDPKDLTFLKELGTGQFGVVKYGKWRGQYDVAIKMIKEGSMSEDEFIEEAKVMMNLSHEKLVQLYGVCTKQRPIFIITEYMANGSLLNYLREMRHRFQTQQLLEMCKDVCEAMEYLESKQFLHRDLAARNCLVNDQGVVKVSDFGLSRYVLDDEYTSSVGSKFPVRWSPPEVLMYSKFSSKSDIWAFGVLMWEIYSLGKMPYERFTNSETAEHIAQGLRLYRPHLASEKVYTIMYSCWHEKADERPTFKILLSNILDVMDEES
Method: In vitro kinase assay was used to evaluate the effects of compounds of the present invention on BTK C481S activity (Table 1).
as §1, with “BTK C481S” for “BTK”, “nM SEB,” for “nM SEB”, “contains human” for “contains human-derived”, “protein (purified in-house)” for “protein (Carna Biosciences, Catalog No. 08-180)”, “to 1.5” for “to 0.2”, “and 35” for “and 40”
as §2, with “activity of BTK C481S. In this” for “activity of BTK. In this”, “with BTK C481 S but no” for “with BTK but no”, “XLfit software (TD Business Solutions” for “XLfit software (ID Business Solutions”

T1 sequence (Q06187 whole entry): as the sequence (Q06187 whole entry C481S) above, with S481C counted along it

Row | Compound | IC50 [1] [nM] | IC50 [2] [nM]
1 | COc1ccc(F)cc1C(=O)NCc1ccc(-c2nc(C3(C(F)(F)F)CC3)n3ncnc(N)c23)cc1 [Compound 43, N-(4-(4-amino-7-(1-(trifluoromethyl)cyclopropyl)imidazo[5,1-f][1,2,4]triazin-5-yl)benzyl)-5-fluoro-2-methoxybenzamide] | 2.7 | 5.4
2 | COc1ccc(F)cc1C(=O)NCc1ccc(-c2nc(N3CCOCC3)n3ccnc(N)c23)cc1 [Compound 44, N-(4-(8-amino-3-morpholinoimidazo[1,5-a]pyrazin-1-yl)benzyl)-5-fluoro-2-methoxybenzamide] | 10 | 7.1
3 | COc1ccc(F)cc1C(=O)NCc1ccc(-c2nc(N3CCOCC3)n3ncnc(N)c23)cc1 [Compound 45, N-(4-(4-amino-7-morpholinoimidazo[5,1-f][1,2,4]triazin-5-yl)benzyl)-5-fluoro-2-methoxybenzamide] | 9.4 | 2.6
4 | COc1ccc(F)cc1C(=O)NCc1ccc(-c2nc([C@]3(C)CC[C@](C)(C(=O)O)CC3)n3ncnc(N)c23)cc1 [Compound 46, (1s,4s)-4-(4-amino-5-(4-((5-fluoro-2-methoxybenzamido)methyl)phenyl)imidazo[5,1-f][1,2,4]triazin-7-yl)-1,4-dimethylcyclohexane-1-carboxylic acid] | 7.7 | 1.6
5 | COc1ccc(F)cc1C(=O)NCc1ccc(-c2nc([C@]3(C)CC[C@@](C)(C(=O)O)CC3)n3ncnc(N)c23)cc1 [Compound 47, (1r,4r)-4-(4-amino-5-(4-((5-fluoro-2-methoxybenzamido)methyl)phenyl)imidazo[5,1-f][1,2,4]triazin-7-yl)-1,4-dimethylcyclohexane-1-carboxylic acid] | 1.3 | 1.4
6 | COc1ccc(F)cc1C(=O)NCc1ccc(-n2c(=O)n(C34CCC(C(=O)O)(CC3)CC4)c3ncnc(N)c32)cc1 [Compound 48, 4-(6-amino-7-(4-((5-fluoro-2-methoxybenzamido)methyl)phenyl)-8-oxo-7,8-dihydro-9H-purin-9-yl)bicyclo[2.2.2]octane-1-carboxylic acid] | 1.2 | 8.2
7 | COc1ccc(F)cc1C(=O)NCc1ccc(-n2c(=O)n([C@H]3CC[C@H](CO)CC3)c3ncnc(N)c32)cc1 [Compound 50, N-(4-(6-amino-9-((1r,4r)-4-(hydroxymethyl)cyclohexyl)-8-oxo-8,9-dihydro-7H-purin-7-yl)benzyl)-5-fluoro-2-methoxybenzamide] | 2.4 | 20
8 | COc1ccc(F)cc1C(=O)NCc1ccc(-n2c(=O)n(C3CCOCC3)c3ncnc(N)c32)cc1 [Compound 51, N-(4-(6-amino-8-oxo-9-(tetrahydro-2H-pyran-4-yl)-8,9-dihydro-7H-purin-7-yl)benzyl)-5-fluoro-2-methoxybenzamide] | 4 | 9.2
9 | COc1ccc(F)cc1C(=O)NCc1ccc(-n2c(=O)n(C3CCOCC3)c3ccnc(N)c32)cc1 [Compound 52, N-(4-(4-amino-2-oxo-1-(tetrahydro-2H-pyran-4-yl)-1,2-dihydro-3H-imidazo[4,5-c]pyridin-3-yl)benzyl)-5-fluoro-2-methoxybenzamide] | 7.2 | 30
10 | COc1ccc(F)cc1C(=O)NCc1ccc(-n2c(=O)n(C(C)C(F)(F)F)c3ncnc(N)c32)cc1 (stereo not shown) [Compound 53, N-(4-(6-amino-8-oxo-9-(1,1,1-trifluoropropan-2-yl)-8,9-dihydro-7H-purin-7-yl)benzyl)-5-fluoro-2-methoxybenzamide] | 5.6 | 21
11 | COc1ccc(F)cc1C(=O)NCc1ccc(-n2c(=O)n(C34CCC(C(=O)N5CCOCC5)(CC3)CC4)c3ncnc(N)c32)cc1 [Compound 54, N-(4-(6-amino-9-(4-(morpholine-4-carbonyl)bicyclo[2.2.2]octan-1-yl)-8-oxo-8,9-dihydro-7H-purin-7-yl)benzyl)-5-fluoro-2-methoxybenzamide] | 5.8 | 6.1
